According to PubChem BioAssay (NCI):
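Step 1: Grow cells in 96-well plates. Step 2: Expose to compound for 48 hours at 5 concentrations. Step 3: Interpolate endpoints linearly; if unreached, use highest concentration. GI50: concentration for 50% inhibition of growth. TGI denotes the concentration required for complete inhibition of growth.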

Legend:
Assay in all cases: inhibition of tumour cell growth, NCI panel, 48 h
[1] = test system: SW-620 colon
[2] = test system: A498 renal
[3] = test system: SNB-19 CNS
[4] = test system: COLO 205 colon
[5] = test system: NCI-H226 lung
[6] = test system: OVCAR-3 ovarian
[7] = test system: HCC-2998 colon
[8] = test system: CAKI-1 renal
[9] = test system: MDA-MB-231 breast
[10] = test system: NCI/ADR-RES ovarian

SMILES | GI50 [1] [µM] | TGI [1] [µM] | GI50 [2] [µM] | TGI [2] [µM] | GI50 [3] [µM] | TGI [3] [µM] | GI50 [4] [µM] | TGI [4] [µM] | GI50 [5] [µM] | TGI [5] [µM] | GI50 [6] [µM] | TGI [6] [µM] | GI50 [7] [µM] | TGI [7] [µM] | GI50 [8] [µM] | TGI [8] [µM] | GI50 [9] [µM] | TGI [9] [µM] | GI50 [10] [µM] | TGI [10] [µM]
N.N.N.N.O=NN1CCCCCC1(P(=O)([O-])[O-])P(=O)([O-])[O-].[Pt+4].[Pt+4] | > 100 | > 100 | > 100 | > 100 | > 100 | > 100 | > 100 | > 100 | > 100 | > 100 | > 100 | > 100 | > 100 | > 100 | > 100 | > 100 |  |  |  | 
CC(/C=C/C(=O)c1sc(-n2nc(-c3ccccc3)cc2-c2ccccc2)nc1C)=C\c1ccccc1 | > 100 | > 100 | > 100 | > 100 |  | > 100 |  |  | > 100 | > 100 |  | > 100 |  | > 100 |  | > 100 |  |  |  | 
CCOC(CCCNCCCn1c2c(c3cc(OC)c(OC)cc3c1=O)C(=O)c1cc3c(cc1-2)OCO3)OCC | 2.63 | 10.5 | 5.79 | 12.1 | 6.13 | 12.3 | 7.81 | 14.5 | 3.43 | 10.7 | 7.65 | 14.3 |  |  | 1.43 | 7.61 | 2.65 | 10.1 | 6.5 | 13.7
Cc1nnc(N=Nc2c(O)[nH]c3c(Cl)cc(Cl)cc23)n1N |  | > 100 |  | > 100 |  | > 100 |  | > 100 |  | > 100 |  | > 100 |  | > 100 |  | > 100 |  |  |  | 
Cc1ccc2c(c1)C(C)Cc1c(ncnc1-n1cnc3cc(C)ccc31)N2C (centres undefined) | 0.0417 | 15.9 | 0.0297 | 2 | 0.0522 | 21.9 | 0.0224 | 0.0553 | 0.0551 | 22.8 |  |  | 0.0422 | 16.3 | 0.0407 | 12.4 | 0.0416 | 13.4 | 0.0374 | 54.3
CCN(CC)c1ccc(C2CC(c3cc(OC)c(OC)c(OC)c3)=NN2)cc1 (centres undefined) | 0.47 | > 100 | 0.443 | 2.44 | 0.636 | > 100 |  |  | 4.48 | > 29.7 | 1.88 | > 100 | 1.15 | > 27 | 0.346 |  | 0.513 | 69.2 | 0.44 | > 100
O=C1Nc2cc(Cl)ccc2N=CC1NC(=O)C(c1ccccc1)c1ccccc1Cl (centres undefined) |  | > 100 |  | > 100 |  | > 100 |  | > 100 |  | > 100 |  | > 100 |  | > 100 |  | > 100 |  |  |  | 
COc1cc2c3c(c4ccc(OC)c(OC)c4c2cc1OC)CN1CCC[C@@H]1C3 |  | > 47.7 |  | 0.0681 |  | 0.0826 |  |  |  | 0.263 |  | 16.6 |  | 1.78 |  | 1.1 |  | 0.156 |  | 0.4
Cc1ccc(-n2c3nc(=O)n(C)c(=O)c-3nc3ccccc32)cc1 |  | 19.6 |  | > 100 |  | 33.5 |  | 14.8 |  | 68.7 |  | 17.6 |  | 20.6 |  | 70.7 |  |  |  | 
CCC(=O)C1(c2ccccc2)CCN(C)CC1 |  | > 100 |  | > 100 |  | > 100 |  | > 100 |  |  |  |  |  | > 100 |  | > 100 |  |  |  | > 100
C[N+](C)(C)CC(=O)N/N=C(\CCC(=O)NCCc1ccccc1)CC(=O)c1ccccc1 |  | > 100 |  | > 100 |  | > 100 |  | > 100 |  | > 100 |  | > 100 |  | > 100 |  | > 100 |  |  |  | 
CN(C)c1ncnc2c1Cc1ccccc1C(=O)N2C |  | > 100 |  |  |  | > 100 |  | > 100 |  | > 100 |  | > 100 |  | > 100 |  | > 100 |  |  |  | 
CC1CN(c2ccc(Cl)cc2)CC(C)(C)OC(=O)O1 (centres undefined) |  | > 100 |  |  |  | > 100 |  | > 100 |  | > 100 |  | > 100 |  | > 100 |  | > 100 |  |  |  | 
COc1c2c3ccccc3nc-2n(C)c2ccccc12 | 7.97 | > 100 | 10.1 | 24.8 | 17.1 | > 100 | 6.73 | 49.4 | 6.77 | 74.3 | 21 | > 100 |  |  | 19.2 | > 100 | 7.03 | 40.4 | 7.33 | 34.8
O=C(NCCc1ccccc1)C(c1ccccc1)(c1ccccc1)c1ccccc1 | 4.35 | > 100 |  |  | 7.27 | > 100 | 3.26 | > 100 |  |  | 5.78 | > 100 |  |  | 4.16 | 26.1 | 0.519 | 4.21 | 2.23 | 6.59
Nc1nc(Cl)cc(NCCCCCNc2cc(Cl)nc(N)n2)n1 |  | > 100 |  |  |  | > 100 |  | > 100 |  | > 100 |  | > 100 |  | > 100 |  | > 100 |  |  |  | 
O=C(NCCO)c1cc2c(cn1)[nH]c1ccccc12 |  | > 100 |  | > 100 |  | > 100 |  | > 100 |  | > 100 |  | > 100 |  | 33.2 |  | > 100 |  |  |  | 
CSc1nc(NC2OCC(OC(C)=O)C(OC(C)=O)C2OC(C)=O)c(N=C(C)C(C)=O)c(=O)n1C (centres undefined) |  | > 100 |  | > 100 |  | > 100 |  | > 100 |  | > 100 |  | > 100 |  | > 100 |  | > 100 |  |  |  | 
N=C(N)/N=C(\N)c1c(-c2cc(O)ccc2O)nc2sccn12 | 19.9 | 39.4 | > 100 | > 100 | > 100 | > 100 | 38.7 | > 100 | > 100 | > 100 | 21.8 | 54.8 |  |  | 20.1 | 39.3 | 18.9 | 39.8 | 82.3 | > 100
